{"source": "patent US6077680A", "about": "(The University of Florida, dated 2000)", "data": [{"system": "rat brain membrane K channels (primarily Kv1.2)", "type": "binding", "conditions": "not given", "values": [{"smiles": "CC[C@H](C)[C@@H]1NC(=O)[C@@H](NC(=O)[C@H](CO)NC(=O)[C@@H](N)CCCNC(=N)N)CSSC[C@@H](C(=O)O)NC(=O)[C@H]([C@@H](C)O)NC(=O)CNC(=O)[C@@H]2CSSC[C@@H]3NC(=O)[C@H](CCC(N)=O)NC(=O)[C@H](Cc4ccccc4)NC(=O)[C@H](C)NC(=O)[C@H]([C@@H](C)O)NC(=O)[C@H](CSSC[C@H](NC(=O)[C@H](Cc4ccccc4)NC(=O)[C@H](CO)NC(=O)[C@H](CC(C)C)NC(=O)[C@H](CCCNC(=N)N)NC(=O)[C@H](Cc4ccc(O)cc4)NC(=O)[C@H](CCCCN)NC(=O)[C@H](CCSC)NC(=O)[C@H](CO)NC(=O)[C@H](CCCCN)NC(=O)[C@H](CCCCN)NC3=O)C(=O)N[C@@H](CCCNC(=N)N)C(=O)N[C@@H](CCCCN)C(=O)N[C@@H]([C@@H](C)O)C(=O)N2)NC(=O)[C@H](CCCNC(=N)N)NC(=O)[C@H](CO)NC(=O)[C@H](CCCCN)NC(=O)[C@@H]2CCCN2C(=O)[C@H]([C@@H](C)CC)NC(=O)[C@H]([C@@H](C)O)NC(=O)[C@H](CC(=O)O)NC1=O", "note": "[H19K]", "Equipotent Molar Ratio (Analog IC50 /ShK IC50)": 2.6, "Free Energy Differ. of Binding ΔF": 0.56, "IC50 Ratio": 2.6, "binding affinity for rat brain K channels relative to wild-type ShK toxin, in words": "slightly reduced IC50 ratio", "ΔF": 0.56}, {"smiles": "CC[C@H](C)[C@@H]1NC(=O)[C@@H](NC(=O)[C@H](CO)NC(=O)[C@@H](N)CCCNC(=N)N)CSSC[C@@H](C(=O)O)NC(=O)[C@H]([C@@H](C)O)NC(=O)CNC(=O)[C@@H]2CSSC[C@@H]3NC(=O)[C@H](CCC(N)=O)NC(=O)[C@H](Cc4ccccc4)NC(=O)[C@H](C)NC(=O)[C@H]([C@@H](C)O)NC(=O)[C@H](CSSC[C@H](NC(=O)[C@H](Cc4ccccc4)NC(=O)[C@H](CO)NC(=O)[C@H](CC(C)C)NC(=O)[C@H](CCCNC(=N)N)NC(=O)[C@H](Cc4ccc(O)cc4)NC(=O)[C@H](CCCCN)NC(=O)[C@H](CCSC)NC(=O)[C@H](CO)NC(=O)[C@H](Cc4c[nH]cn4)NC(=O)[C@H](CCCCN)NC3=O)C(=O)N[C@@H](CCCNC(=N)N)C(=O)N[C@@H](CCCCN)C(=O)N[C@@H]([C@@H](C)O)C(=O)N2)NC(=O)[C@H](CCCNC(=N)N)NC(=O)[C@H](CO)NC(=O)[C@H](CCCCN)NC(=O)[C@@H]2CCCN2C(=O)[C@H](C)NC(=O)[C@H]([C@@H](C)O)NC(=O)[C@H](CC(=O)O)NC1=O", "note": "[I7A]", "Difference of Free Energy of Binding": 0.96, "IC50 Ratio": 5.2, "increase in relative free energy of binding": "approximately 1 kcal/mol"}, {"smiles": "CC[C@H](C)[C@@H]1NC(=O)[C@@H](NC(=O)[C@H](CO)NC(=O)[C@@H](N)CCCNC(=N)N)CSSC[C@@H](C(=O)O)NC(=O)[C@H]([C@@H](C)O)NC(=O)CNC(=O)[C@@H]2CSSC[C@@H]3NC(=O)[C@H](CCC(N)=O)NC(=O)[C@H](Cc4ccccc4)NC(=O)[C@H](C)NC(=O)[C@H]([C@@H](C)O)NC(=O)[C@H](CSSC[C@H](NC(=O)[C@H](Cc4ccccc4)NC(=O)[C@H](CO)NC(=O)[C@H](CC(C)C)NC(=O)[C@H](CCCNC(=N)N)NC(=O)[C@H](Cc4ccc(O)cc4)NC(=O)[C@H](CCCCN)NC(=O)[C@H](CCSC)NC(=O)[C@H](CO)NC(=O)[C@H](Cc4c[nH]cn4)NC(=O)[C@H](CCCCN)NC3=O)C(=O)N[C@@H](CCCNC(=N)N)C(=O)N[C@@H](CCCCN)C(=O)N[C@@H]([C@@H](C)O)C(=O)N2)NC(=O)[C@H](CCCNC(=N)N)NC(=O)[C@H](CO)NC(=O)[C@H](C)NC(=O)[C@@H]2CCCN2C(=O)[C@H]([C@@H](C)CC)NC(=O)[C@H]([C@@H](C)O)NC(=O)[C@H](CC(=O)O)NC1=O", "note": "[K9A]", "Difference of Free Energy of Binding": 0.15, "IC50 Ratio": 1.3}, {"smiles": "CC[C@H](C)[C@@H]1NC(=O)[C@@H](NC(=O)[C@H](CO)NC(=O)[C@@H](N)CCCNC(=N)N)CSSC[C@@H](C(=O)O)NC(=O)[C@H]([C@@H](C)O)NC(=O)CNC(=O)[C@@H]2CSSC[C@@H]3NC(=O)[C@H](CCC(N)=O)NC(=O)[C@H](Cc4ccccc4)NC(=O)[C@H](C)NC(=O)[C@H]([C@@H](C)O)NC(=O)[C@H](CSSC[C@H](NC(=O)[C@H](Cc4ccccc4)NC(=O)[C@H](CO)NC(=O)[C@H](CC(C)C)NC(=O)[C@H](CCCNC(=N)N)NC(=O)[C@H](Cc4ccc(O)cc4)NC(=O)[C@H](CCCCN)NC(=O)[C@H](CCSC)NC(=O)[C@H](CO)NC(=O)[C@H](Cc4c[nH]cn4)NC(=O)[C@H](CCCCN)NC3=O)C(=O)N[C@@H](CCCNC(=N)N)C(=O)N[C@@H](CCCCN)C(=O)N[C@@H]([C@@H](C)O)C(=O)N2)NC(=O)[C@H](CCCNC(=N)N)NC(=O)[C@H](CO)NC(=O)[C@H](CCC(N)=O)NC(=O)[C@@H]2CCCN2C(=O)[C@H]([C@@H](C)CC)NC(=O)[C@H]([C@@H](C)O)NC(=O)[C@H](CC(=O)O)NC1=O", "note": "[K9Q]", "Equipotent Molar Ration (Analog IC50 /ShK IC50) Rat brain": 0.6}]}, {"system": "rat brain membrane K channels (primarily Kv1.2)", "type": "binding", "conditions": "read-out: IC50 Rat Brain 125I-CTX", "units": {"IC50": "nM"}, "values": [{"smiles": "CC[C@H](C)[C@@H]1NC(=O)[C@@H](NC(=O)[C@H](CO)NC(=O)[C@@H](N)CCCNC(=N)N)CSSC[C@@H](C(=O)O)NC(=O)[C@H]([C@@H](C)O)NC(=O)CNC(=O)[C@@H]2CSSC[C@@H]3NC(=O)[C@H](CCC(N)=O)NC(=O)[C@H](Cc4ccccc4)NC(=O)[C@H](C)NC(=O)[C@H]([C@@H](C)O)NC(=O)[C@H](CSSC[C@H](NC(=O)[C@H](Cc4ccccc4)NC(=O)[C@H](CO)NC(=O)[C@H](CC(C)C)NC(=O)[C@H](CCCNC(=N)N)NC(=O)[C@H](Cc4ccc(O)cc4)NC(=O)[C@H](CCCCN)NC(=O)[C@H](CCSC)NC(=O)[C@H](CO)NC(=O)[C@H](Cc4c[nH]cn4)NC(=O)[C@H](CCCCN)NC3=O)C(=O)N[C@@H](CCCNC(=N)N)C(=O)N[C@@H](CCCCN)C(=O)N[C@@H]([C@@H](C)O)C(=O)N2)NC(=O)[C@H](CCCNC(=N)N)NC(=O)[C@H](CO)NC(=O)[C@H](CCC(N)=O)NC(=O)[C@@H]2CCCN2C(=O)[C@H]([C@@H](C)CC)NC(=O)[C@H]([C@@H](C)O)NC(=O)[C@H](CC(=O)O)NC1=O", "note": "[K9Q]", "IC50": 11}]}, {"biological_target": "Kv1.3 potassium channels in Jurkat T lymphocytes (Homo sapiens, UniProt P22001)", "sequence (P22001 whole entry)": "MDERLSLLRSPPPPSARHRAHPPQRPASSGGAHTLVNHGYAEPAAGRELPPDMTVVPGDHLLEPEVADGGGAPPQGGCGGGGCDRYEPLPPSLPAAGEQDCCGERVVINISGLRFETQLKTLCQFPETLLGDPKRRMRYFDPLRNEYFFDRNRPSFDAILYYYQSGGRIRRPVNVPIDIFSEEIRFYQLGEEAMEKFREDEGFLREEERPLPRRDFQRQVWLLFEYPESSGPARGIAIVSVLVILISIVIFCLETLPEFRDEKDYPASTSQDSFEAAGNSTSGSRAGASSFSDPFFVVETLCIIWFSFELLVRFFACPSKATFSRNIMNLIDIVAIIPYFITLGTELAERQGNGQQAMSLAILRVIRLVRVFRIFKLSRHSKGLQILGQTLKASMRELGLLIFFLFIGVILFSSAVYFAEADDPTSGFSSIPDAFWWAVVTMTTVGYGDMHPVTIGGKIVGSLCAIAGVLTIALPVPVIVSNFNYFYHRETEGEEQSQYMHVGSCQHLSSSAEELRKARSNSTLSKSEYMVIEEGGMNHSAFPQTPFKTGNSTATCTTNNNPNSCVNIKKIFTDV", "type": "cell-based", "conditions": "not given", "units": {"reduction of affinity (IC50) for Kv1.3 relative to ShK toxin": "fold"}, "values": [{"smiles": "CC[C@H](C)[C@@H]1NC(=O)[C@@H](NC(=O)[C@H](CO)NC(=O)[C@@H](N)CCCNC(=N)N)CSSC[C@@H](C(=O)O)NC(=O)[C@H]([C@@H](C)O)NC(=O)CNC(=O)[C@@H]2CSSC[C@@H]3NC(=O)[C@H](CCC(N)=O)NC(=O)[C@H](Cc4ccccc4)NC(=O)[C@H](C)NC(=O)[C@H]([C@@H](C)O)NC(=O)[C@H](CSSC[C@H](NC(=O)[C@H](Cc4ccccc4)NC(=O)[C@H](CO)NC(=O)[C@H](CC(C)C)NC(=O)[C@H](CCCNC(=N)N)NC(=O)[C@H](Cc4ccc(O)cc4)NC(=O)[C@H](CCCCN)NC(=O)[C@H](CCSC)NC(=O)[C@H](CO)NC(=O)[C@H](Cc4c[nH]cn4)NC(=O)[C@H](CCCCN)NC3=O)C(=O)N[C@@H](CCCNC(=N)N)C(=O)N[C@@H](CCCCN)C(=O)N[C@@H]([C@@H](C)O)C(=O)N2)NC(=O)[C@H](CCCNC(=N)N)NC(=O)[C@H](CO)NC(=O)[C@H](CCC(N)=O)NC(=O)[C@@H]2CCCN2C(=O)[C@H]([C@@H](C)CC)NC(=O)[C@H]([C@@H](C)O)NC(=O)[C@H](CC(=O)O)NC1=O", "note": "[K9Q]", "Equipotent Molar Ration (Analog IC50 /ShK IC50) Lymphocyte": 9.6, "reduction of affinity (IC50) for Kv1.3 relative to ShK toxin": 9.6}]}]}
